Experimental data as given in the OligoGym collection.
Oligonucleotides are written 5' to 3', each unit as a sugar letter and its base; * is a phosphorothioate linkage, no mark a phosphodiester; rarer units and linkages stand in square brackets, end groups in braces. Plain capitals give the bases only. d = 2'-deoxy (DNA); r = 2'-OH (RNA)

What follows are substances tested against UBE2C (assay: reporter assay of Huesken 2005). Details: siRNA.
Note: test concentration or dose not given here.

Substance | normalised inhibition (eCFP-eYFP dual reporter)
sense rArArCrArUrUrGrArUrArGrUrCrCrCrUrUrGrAdTdT / antisense rUrCrArArGrGrGrArCrUrArUrCrArArUrGrUrUdGdG | 93.1%
sense rArArGrArCrCrUrGrArGrGrUrArUrArArGrCrUdTdT / antisense rArGrCrUrUrArUrArCrCrUrCrArGrGrUrCrUrUdCdA | 46.4%
sense rArArGrUrUrCrCrUrCrArCrGrCrCrCrUrGrCrUdTdT / antisense rArGrCrArGrGrGrCrGrUrGrArGrGrArArCrUrUdCdA | 51%

Each substance was assayed against P2rx2 (rat) (assay: reporter assay of Huesken 2005). Details: siRNA.

Substance | normalised inhibition (eCFP-eYFP dual reporter)
sense rCrGrGrArArGrArCrArArArGrUrGrUrGrGrGrAdTdT / antisense rUrCrCrCrArCrArCrUrUrUrGrUrCrUrUrCrCrGdAdC | 64.6%
sense rCrGrUrGrCrArGrArArArArGrCrUrArCrCrArGdTdT / antisense rCrUrGrGrUrArGrCrUrUrUrUrCrUrGrCrArCrGdAdT | 80.5%
sense rCrUrArCrArArCrUrUrCrArGrGrUrUrUrGrCrCdTdT / antisense rGrGrCrArArArCrCrUrGrArArGrUrUrGrUrArGdCdC | 57%
sense rCrUrArCrCrCrCrArArGrUrUrCrArArGrUrUrCdTdT / antisense rGrArArCrUrUrGrArArCrUrUrGrGrGrGrUrArGdTdG | 62.8%
sense rCrUrCrCrArUrCrGrGrGrGrUrGrGrGrCrUrCrCdTdT / antisense rGrGrArGrCrCrCrArCrCrCrCrGrArUrGrGrArGdGdT | 38.5%
sense rCrUrCrCrUrUrCrCrUrGrUrGrUrGrArCrUrGrGdTdT / antisense rCrCrArGrUrCrArCrArCrArGrGrArArGrGrArGdCdC | 47.5%
sense rCrUrCrUrGrArCrUrGrArGrCrArGrGrUrGrGrUdTdT / antisense rArCrCrArCrCrUrGrCrUrCrArGrUrCrArGrArGdCdA | 46.8%
sense rCrUrGrArCrArArCrCrArUrUrUrUrCrUrGrGrGdTdT / antisense rCrCrCrArGrArArArArUrGrGrUrUrGrUrCrArGdAdA | 40.3%
sense rCrUrGrGrArArCrUrGrUrGrArCrCrUrGrGrArCdTdT / antisense rGrUrCrCrArGrGrUrCrArCrArGrUrUrCrCrArGdTdT | 70.3%
sense rCrUrGrGrArCrArUrGrCrArArGrGrCrArArUrGdTdT / antisense rCrArUrUrGrCrCrUrUrGrCrArUrGrUrCrCrArGdCdT | 55.2%
sense rCrUrUrGrGrCrCrArGrCrArUrArUrGrGrGrArCdTdT / antisense rGrUrCrCrCrArUrArUrGrCrUrGrGrCrCrArArGdTdG | 52%
sense rGrArArArUrUrCrArGrUrCrUrCrArUrUrCrCrCdTdT / antisense rGrGrGrArArUrGrArGrArCrUrGrArArUrUrUrCdCdC | 39.7%
sense rGrArCrArGrCrUrGrGrArCrArUrGrCrArArGrGdTdT / antisense rCrCrUrUrGrCrArUrGrUrCrCrArGrCrUrGrUrCdCdG | 35.3%
sense rGrArCrCrCrUrGrCrCrUrCrCrUrCrArGrGrCrUdTdT / antisense rArGrCrCrUrGrArGrGrArGrGrCrArGrGrGrUrCdAdT | 61.9%
sense rGrArGrGrArArUrArCrGrUrArArArGrCrCrCrCdTdT / antisense rGrGrGrGrCrUrUrUrArCrGrUrArUrUrCrCrUrCdCdA | 34.9%
sense rGrArUrCrArGrGrArCrUrCrUrGrArCrCrCrArUdTdT / antisense rArUrGrGrGrUrCrArGrArGrUrCrCrUrGrArUrCdAdA | 81.3%
sense rGrCrArUrCrArUrCrArCrCrArGrGrArUrCrGrAdTdT / antisense rUrCrGrArUrCrCrUrGrGrUrGrArUrGrArUrGrCdTdG | 78.5%
sense rGrCrCrArCrCrCrArGrCrCrCrUrCrCrArUrCrAdTdT / antisense rUrGrArUrGrGrArGrGrGrCrUrGrGrGrUrGrGrCdTdG | 60.8%
sense rGrCrCrArUrArArGrArArGrUrUrCrGrArCrArAdTdT / antisense rUrUrGrUrCrGrArArCrUrUrCrUrUrArUrGrGrCdTdG | 88.6%
sense rGrCrCrCrGrGrUrGrGrArGrGrArUrGrGrArArCdTdT / antisense rGrUrUrCrCrArUrCrCrUrCrCrArCrCrGrGrGrCdAdC | 48.4%
sense rGrCrUrArCrCrArGrGrArCrArGrCrGrArGrArCdTdT / antisense rGrUrCrUrCrGrCrUrGrUrCrCrUrGrGrUrArGrCdTdT | 60.5%
sense rGrCrUrCrUrArCrCrUrGrCrCrArUrUrCrArGrAdTdT / antisense rUrCrUrGrArArUrGrGrCrArGrGrUrArGrArGrCdTdG | 79.4%
sense rGrGrArArGrArCrArArArGrUrGrUrGrGrGrArCdTdT / antisense rGrUrCrCrCrArCrArCrUrUrUrGrUrCrUrUrCrCdGdA | 69.5%
sense rGrGrArGrArGrArArCrUrUrCrArCrArGrArArCdTdT / antisense rGrUrUrCrUrGrUrGrArArGrUrUrCrUrCrUrCrCdTdG | 61.7%
sense rGrGrCrArGrGrGrArArArUrUrCrArGrUrCrUrCdTdT / antisense rGrArGrArCrUrGrArArUrUrUrCrCrCrUrGrCrCdTdG | 51.5%

Substance | normalised inhibition (eCFP-eYFP dual reporter)
sense rGrGrGrArArArUrUrCrArGrUrCrUrCrArUrUrCdTdT / antisense rGrArArUrGrArGrArCrUrGrArArUrUrUrCrCrCdTdG | 72.6%
sense rGrGrGrArUrUrCrGrCrArCrArGrGrGrCrArCrUdTdT / antisense rArGrUrGrCrCrCrUrGrUrGrCrGrArArUrCrCrCdAdT | 66%
sense rGrGrUrGrCrGrGrArArUrCrGrGrCrGrCrCrUrGdTdT / antisense rCrArGrGrCrGrCrCrGrArUrUrCrCrGrCrArCrCdAdC | 69.3%
sense rGrGrUrGrGrUrGrGrArCrArCrArCrUrUrGrGrCdTdT / antisense rGrCrCrArArGrUrGrUrGrUrCrCrArCrCrArCrCdTdG | 52.2%
sense rGrUrGrUrCrArUrUrGrGrArGrUrCrArUrCrArUdTdT / antisense rArUrGrArUrGrArCrUrCrCrArArUrGrArCrArCdCdG | 59%
sense rUrArCrCrUrCrArArGrCrArUrUrGrCrArCrArUdTdT / antisense rArUrGrUrGrCrArArUrGrCrUrUrGrArGrGrUrAdGdT | 72.3%
sense rUrCrArArGrUrArGrArUrGrGrCrCrUrGrUrGrAdTdT / antisense rUrCrArCrArGrGrCrCrArUrCrUrArCrUrUrGrAdGdG | 67.1%
sense rUrCrArGrCrCrArCrCrCrArGrCrCrCrUrCrCrAdTdT / antisense rUrGrGrArGrGrGrCrUrGrGrGrUrGrGrCrUrGrAdTdC | 51.2%
sense rUrCrArUrCrArArGrArArCrArGrCrArUrCrCrAdTdT / antisense rUrGrGrArUrGrCrUrGrUrUrCrUrUrGrArUrGrAdGdG | 53.7%
sense rUrCrArUrCrArArUrCrUrGrGrCrCrArCrUrGrCdTdT / antisense rGrCrArGrUrGrGrCrCrArGrArUrUrGrArUrGrAdTdG | 43.1%
sense rUrCrCrCrArGrArCrCrUrUrGrGrGrArArCrArUdTdT / antisense rArUrGrUrUrCrCrCrArArGrGrUrCrUrGrGrGrAdAdG | 50.4%
sense rUrCrGrArUrGrUrUrArUrCrGrUrGrCrArUrGrGdTdT / antisense rCrCrArUrGrCrArCrGrArUrArArCrArUrCrGrAdTdT | 57.4%
sense rUrCrGrUrGrCrArGrArArArArGrCrUrArCrCrAdTdT / antisense rUrGrGrUrArGrCrUrUrUrUrCrUrGrCrArCrGrAdTdG | 74.2%
sense rUrCrUrCrArUrCrCrUrGrCrUrUrUrArCrUrUrCdTdT / antisense rGrArArGrUrArArArGrCrArGrGrArUrGrArGrAdAdG | 61.3%
sense rUrGrArCrCrCrUrUrGrCrCrCrUrUrGrUrCrUrUdTdT / antisense rArArGrArCrArArGrGrGrCrArArGrGrGrUrCrAdCdA | 53.9%
sense rUrGrArGrArArGrGrCrArGrGrArGrArGrArArCdTdT / antisense rGrUrUrCrUrCrUrCrCrUrGrCrCrUrUrCrUrCrAdAdC | 32.3%
sense rUrGrCrCrArArGrUrArUrUrArCrArArGrArUrAdTdT / antisense rUrArUrCrUrUrGrUrArArUrArCrUrUrGrGrCrAdAdA | 76.8%
sense rUrGrCrCrCrUrUrGrUrCrUrUrGrGrGrCrCrArGdTdT / antisense rCrUrGrGrCrCrCrArArGrArCrArArGrGrGrCrAdAdG | 37%
sense rUrGrGrCrCrArCrUrGrCrUrCrUrGrArCrCrUrCdTdT / antisense rGrArGrGrUrCrArGrArGrCrArGrUrGrGrCrCrAdGdA | 57%
sense rUrGrGrCrUrGrUrCrCrArGrUrCrUrCrCrUrCrGdTdT / antisense rCrGrArGrGrArGrArCrUrGrGrArCrArGrCrCrAdGdT | 67.4%
sense rUrGrUrCrUrGrArArUrCrArGrArGrUrGrCrArAdTdT / antisense rUrUrGrCrArCrUrCrUrGrArUrUrCrArGrArCrAdAdG | 80.9%
sense rUrUrCrArCrArGrCrUrCrUrArCrCrUrGrCrCrAdTdT / antisense rUrGrGrCrArGrGrUrArGrArGrCrUrGrUrGrArAdCdC | 51.7%
sense rUrUrGrCrArArGrCrCrArGrArArGrArGrUrGrAdTdT / antisense rUrCrArCrUrCrUrUrCrUrGrGrCrUrUrGrCrArAdTdG | 72.8%
sense rUrUrGrCrCrArArGrUrArUrUrArCrArArGrArUdTdT / antisense rArUrCrUrUrGrUrArArUrArCrUrUrGrGrCrArAdAdC | 56.7%
